We go through one compound from US20070269492A1, “New product and use and manufacture thereof” (priority 2006, published 2007).

The text on data set [1]:
Absorption of nicotine from the oral cavity to the systemic circulation is dependent on the pH of the saliva, pH of the blood plasma and the pKa of nicotine, which is about 7.8. Assuming a pH of the saliva of 6.8, only about 10% of the nicotine will be in the free base form. Thus, in order to promote absorption of nicotine in a free base form, which is the form predominantly absorbed through the mucosa, the pH of the saliva must preferably be increased to at least pH 7 and to at most pH 10, more preferably to at least pH 8 and at most pH 9.5. At a pH of 8.8 about 90% of the nicotine will then be in the free base form.

For data set [2] the following is noted: cited from earlier work.

Read-outs that look alike come from different tables or passages of the source.

Regarding `CN1CCCC1c1cccnc1` (stereo not drawn) [nicotine, 3-(1-methyl-2-pyrrolidinyl)-pyridine], the entries for the “nicotine in the free base form” value in data set [1] (pH 8.8) and in data set [1] (saliva pH 6.8) were “about 90%” and “about 10%”, respectively. Further, the “single dose able to kill an adult” value in data set [2] is listed as “Approximately 40 milligrams”.
